According to patent US20020051978A1, “Methods and compositions for the identification, assessment, prevention and therapy of human cancers” (priority 2000, published 2002):
Read-outs that look alike come from different tables or passages of the source.

What was measured:
[1] = test system: 60 cancer cell lines (NCI 60 cancer cell line series); experiment: NCI-DTP in vitro cancer screen, sulforhodamine B (SRB) growth inhibition, 48 hour exposure; format: cell-based, human; design: key to sensitivity class Ovarian OVCAR-8 CL6005 / sensitivity class Ovarian SK-OV-3 CL6011 / sensitivity class Prostate DU-145 CL11003 / sensitivity class NSCLC NCI-H522 CL1003 / sensitivity class Ovarian IGROV1 CL6010 / sensitivity class Ovarian OVCAR-4 CL6002 / sensitivity class Prostate PC-3(I) CL11001 / sensitivity class Renal A498 CL9013 / sensitivity class Renal SN12C CL9008: sensitivity class: 1 = Low, 2 = Medium, 3 = High
Method in brief: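 Values come from the NCI-DTP screen database: -log GI50, the concentration giving 50% growth inhibition, derived from SRB cell-mass dose-response curves. Each line seeded at its own density, treated day 1 at five ten-fold-spaced doses in duplicate wells, stained after 48 h.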

[2] = test system: 60 cancer cell lines (NCI 60 cancer cell line series); conditions: cited from earlier work

NC(=O)NO [Hydroxyurea]
classification of cell line as Low(1), Medium(2) or High(3) sensitivity to compound ([1]; Breast BT-549 (CL5013)): 1
classification of cell line as Low(1), Medium(2) or High(3) sensitivity to compound ([1]; Breast HS-578T CL5006): 2
classification of cell line as Low(1), Medium(2) or High(3) sensitivity to compound ([1]; Breast MCF7(I) (CL5001)): 2
classification of cell line as Low(1), Medium(2) or High(3) sensitivity to compound ([1]; Breast MCF7/ADRr (CL5002)): 2
classification of cell line as Low(1), Medium(2) or High(3) sensitivity to compound ([1]; Breast MDA-MB-231 CL5005): 1
classification of cell line as Low(1), Medium(2) or High(3) sensitivity to compound ([1]; Breast MDA-MB-435 (CL5011)): 1
classification of cell line as Low(1), Medium(2) or High(3) sensitivity to compound ([1]; Breast MDA-N CL5012): 1
classification of cell line as Low(1), Medium(2) or High(3) sensitivity to compound ([1]; Breast T-47D (CL5014)): 1
classification of cell line as Low(1), Medium(2) or High(3) sensitivity to compound ([1]; CNS SF-268 CL12014): 2
classification of cell line as Low(1), Medium(2) or High(3) sensitivity to compound ([1]; CNS SF-295 CL12015): 3
classification of cell line as Low(1), Medium(2) or High(3) sensitivity to compound ([1]; CNS SF-539 CL12016): 3
classification of cell line as Low(1), Medium(2) or High(3) sensitivity to compound ([1]; CNS SNB-19 (CL12002)): 1
classification of cell line as Low(1), Medium(2) or High(3) sensitivity to compound ([1]; CNS SNB-75(I) CL12005): 2
classification of cell line as Low(1), Medium(2) or High(3) sensitivity to compound ([1]; CNS U251(I) CL12009): 2
classification of cell line as Low(1), Medium(2) or High(3) sensitivity to compound ([1]; Colon COLO-250 CL4010): 1
classification of cell line as Low(1), Medium(2) or High(3) sensitivity to compound ([1]; Colon HCC-2998 (CL4002)): 2
classification of cell line as Low(1), Medium(2) or High(3) sensitivity to compound ([1]; Colon HCT-15 CL4015): 2
classification of cell line as Low(1), Medium(2) or High(3) sensitivity to compound ([1]; Colon HCT-116 (CL4003)): 2
classification of cell line as Low(1), Medium(2) or High(3) sensitivity to compound ([1]; Colon HT29(I) CL4001): 2
classification of cell line as Low(1), Medium(2) or High(3) sensitivity to compound ([1]; Colon KM12 (CL4017)): 2
classification of cell line as Low(1), Medium(2) or High(3) sensitivity to compound ([1]; Colon SW-620 (CL4009)): 2
classification of cell line as Low(1), Medium(2) or High(3) sensitivity to compound ([1]; Leukemia CCRF-CEM(I) (CL7003)): 3
classification of cell line as Low(1), Medium(2) or High(3) sensitivity to compound ([1]; Leukemia HL-60(I) (CL7008)): 3
classification of cell line as Low(1), Medium(2) or High(3) sensitivity to compound ([1]; Leukemia K562(I) CL7005): 2
classification of cell line as Low(1), Medium(2) or High(3) sensitivity to compound ([1]; Leukemia MOLT-4 (CL7006)): 3
classification of cell line as Low(1), Medium(2) or High(3) sensitivity to compound ([1]; Leukemia RPMI-8226(I) (CL7010)): 3
classification of cell line as Low(1), Medium(2) or High(3) sensitivity to compound ([1]; Leukemia SR CL7019): 3
classification of cell line as Low(1), Medium(2) or High(3) sensitivity to compound ([1]; Melanoma LOX IMVI CL10001): 2
classification of cell line as Low(1), Medium(2) or High(3) sensitivity to compound ([1]; Melanoma M14 (CL10014)): 2
classification of cell line as Low(1), Medium(2) or High(3) sensitivity to compound ([1]; Melanoma MALME-3M CL10002): 2
classification of cell line as Low(1), Medium(2) or High(3) sensitivity to compound ([1]; Melanoma SK-MEL-2 (CL10005)): 1
classification of cell line as Low(1), Medium(2) or High(3) sensitivity to compound ([1]; Melanoma SK-MEL-5 (CL10007)): 2
classification of cell line as Low(1), Medium(2) or High(3) sensitivity to compound ([1]; Melanoma SK-MEL-28 (CL10008)): 1
classification of cell line as Low(1), Medium(2) or High(3) sensitivity to compound ([1]; Melanoma UACC-62 (CL10020)): 3
classification of cell line as Low(1), Medium(2) or High(3) sensitivity to compound ([1]; Melanoma UACC-257 (CL10021)): 1
classification of cell line as Low(1), Medium(2) or High(3) sensitivity to compound ([1]; NSCLC A549/ATCC (CL1004)): 2
classification of cell line as Low(1), Medium(2) or High(3) sensitivity to compound ([1]; NSCLC EKVX (CL1008)): 1
classification of cell line as Low(1), Medium(2) or High(3) sensitivity to compound ([1]; NSCLC HOP-62 (CL1026)): 2
classification of cell line as Low(1), Medium(2) or High(3) sensitivity to compound ([1]; NSCLC HOP-92 (CL1029)): 2
classification of cell line as Low(1), Medium(2) or High(3) sensitivity to compound ([1]; NSCLC NCI-H226 CL1013): 2
sensitivity class NSCLC NCI-H23(I) CL1001 ([1]; cell line NSCLC NCI-H23(I), CL1001): 2
sensitivity class NSCLC NCI-H332M CL1017 ([1]; cell line NSCLC NCI-H332M, CL1017): 1
sensitivity class NSCLC NCI-H460 CL1021 ([1]; cell line NSCLC NCI-H460, CL1021): 3
sensitivity class NSCLC NCI-H522 CL1003 ([1]; cell line NSCLC NCI-H522, CL1003): 2
sensitivity class Ovarian IGROV1 CL6010 ([1]; cell line Ovarian IGROV1, CL6010): 2
sensitivity class Ovarian OVCAR-3 CL6001 ([1]; cell line Ovarian OVCAR-3, CL6001): 2
sensitivity class Ovarian OVCAR-4 CL6002 ([1]; cell line Ovarian OVCAR-4, CL6002): 1
sensitivity class Ovarian OVCAR-5 CL6003 ([1]; cell line Ovarian OVCAR-5, CL6003): 2
sensitivity class Ovarian OVCAR-8 CL6005 ([1]; cell line Ovarian OVCAR-8, CL6005): 2
sensitivity class Ovarian SK-OV-3 CL6011 ([1]; cell line Ovarian SK-OV-3, CL6011): 1
sensitivity class Prostate DU-145 CL11003 ([1]; cell line Prostate DU-145, CL11003): 2
sensitivity class Prostate PC-3(I) CL11001 ([1]; cell line Prostate PC-3(I), CL11001): 2
sensitivity class Renal 786-O CL9018 ([1]; cell line Renal 786-O, CL9018): 2
sensitivity class Renal A498 CL9013 ([1]; cell line Renal A498, CL9013): 2
sensitivity class Renal ACHN CL9023 ([1]; cell line Renal ACHN, CL9023): 3
sensitivity class Renal CAKI-1 CL9015 ([1]; cell line Renal CAKI-1, CL9015): 3
sensitivity class Renal RXF-393 CL9016 ([1]; cell line Renal RXF-393, CL9016): 2
sensitivity class Renal SN12C CL9008 ([1]; cell line Renal SN12C, CL9008): 2
sensitivity class Renal TK10 CL9024 ([1]; cell line Renal TK10, CL9024): 1
sensitivity class Renal UO-31 CL9004 ([1]; cell line Renal UO-31, CL9004): 2
-Log (GI50) ([2]; Breast BT-549 (CL5013)): 2.8
-Log (GI50) ([2]; Breast HS-578T CL5006): 3.1
-Log (GI50) ([2]; Breast MCF7(I) (CL5001)): 3.5
-Log (GI50) ([2]; Breast MCF7/ADRr (CL5002)): 3.5
-Log (GI50) ([2]; Breast MDA-MB-231 CL5005): 2.6
-Log (GI50) ([2]; Breast MDA-MB-435 (CL5011)): 2.7
-Log (GI50) ([2]; Breast MDA-N CL5012): 2.7
-Log (GI50) ([2]; Breast T-47D (CL5014)): 2.8
-Log (GI50) ([2]; CNS SF-268 CL12014): 3.3
-Log (GI50) ([2]; CNS SF-295 CL12015): 3.5
-Log (GI50) ([2]; CNS SF-539 CL12016): 3.5
-Log (GI50) ([2]; CNS SNB-19 (CL12002)): 2.8
-Log (GI50) ([2]; CNS SNB-75(I) CL12005): 3.1
-Log (GI50) ([2]; CNS U251(I) CL12009): 3.3
-Log (GI50) ([2]; Colon COLO-250 CL4010): 2.8
-Log (GI50) ([2]; Colon HCC-2998 (CL4002)): 3.1
-Log (GI50) ([2]; Colon HCT-15 CL4015): 3.1
-Log (GI50) ([2]; Colon HCT-116 (CL4003)): 3.0
-Log (GI50) ([2]; Colon HT29(I) CL4001): 3.3
-Log (GI50) ([2]; Colon KM12 (CL4017)): 3.1
-Log (GI50) ([2]; Colon SW-620 (CL4009)): 3.0
-Log (GI50) ([2]; Leukemia CCRF-CEM(I) (CL7003)): 4.3
-Log (GI50) ([2]; Leukemia HL-60(I) (CL7008)): 4.7
-Log (GI50) ([2]; Leukemia K562(I) CL7005): 3.0
-Log (GI50) ([2]; Leukemia MOLT-4 (CL7006)): 3.8
-Log (GI50) ([2]; Leukemia RPMI-8226(I) (CL7010)): 3.6
-Log (GI50) ([2]; Leukemia SR CL7019): 3.7
-Log (GI50) ([2]; Melanoma LOX IMVI CL10001): 3.2
-Log (GI50) ([2]; Melanoma M14 (CL10014)): 3.2
-Log (GI50) ([2]; Melanoma MALME-3M CL10002): 2.9
-Log (GI50) ([2]; Melanoma SK-MEL-2 (CL10005)): 2.8
-Log (GI50) ([2]; Melanoma SK-MEL-5 (CL10007)): 3.2
-Log (GI50) ([2]; Melanoma SK-MEL-28 (CL10008)): 2.7
-Log (GI50) ([2]; Melanoma UACC-62 (CL10020)): 3.6
-Log (GI50) ([2]; Melanoma UACC-257 (CL10021)): 2.8
-Log (GI50) ([2]; NCSLC NCI-H522 CL1003): 3.1
-Log (GI50) ([2]; NSCLC A549/ATCC (CL1004)): 3.3
-Log (GI50) ([2]; NSCLC EKVX (CL1008)): 2.8
-Log (GI50) ([2]; NSCLC HOP-62 (CL1026)): 3.0
-Log (GI50) ([2]; NSCLC HOP-92 (CL1029)): 3.1
-Log (GI50) ([2]; NSCLC NCI-H23(I) CL1001): 3.1
-Log (GI50) ([2]; NSCLC NCI-H226 CL1013): 3.1
-Log (GI50) ([2]; NSCLC NCI-H332M CL1017): 2.8
-Log (GI50) ([2]; NSCLC NCI-H460 CL1021): 3.5
-Log (GI50) ([2]; Ovarian IGROV1 CL6010): 3.0
-Log (GI50) ([2]; Ovarian OVCAR-3 CL6001): 3.0
-Log (GI50) ([2]; Ovarian OVCAR-4 CL6002): 2.8
-Log (GI50) ([2]; Ovarian OVCAR-5 CL6003): 3.2
-Log (GI50) ([2]; Ovarian OVCAR-8 CL6005): 3.3
-Log (GI50) ([2]; Ovarian SK-OV-3 CL6011): 2.8
-Log (GI50) ([2]; Prostate DU-145 CL11003): 3.1
-Log (GI50) ([2]; Prostate PC-3(I) CL11001): 3.0
-Log (GI50) ([2]; Renal 786-O CL9018): 3.5
-Log (GI50) ([2]; Renal A498 CL9013): 3.2
-Log (GI50) ([2]; Renal ACHN CL9023): 4.0
-Log (GI50) ([2]; Renal CAKI-1 CL9015): 3.6
-Log (GI50) ([2]; Renal RXF-393 CL9016): 3.2
-Log (GI50) ([2]; Renal SN12C CL9008): 3.1
-Log (GI50) ([2]; Renal TK10 CL9024): 2.7
-Log (GI50) ([2]; Renal UO-31 CL9004): 3.3
